Measured values taken from patent US20230099858A1, “PYRIDOPYRIMIDINE DERIVATIVES AS KRAS INHIBITORS” (BETA PHARMA, INC., priority 2020, published 2023).
Counter-ions that a name gives are not always drawn. Like-named read-outs stand apart in the source and are kept apart here.

Biological target: T1, KRAS G12C (Homo sapiens, UniProt P01116, G12C)
T1 construct: aa 2-169, expressed in E. coli; His-tag (TEV cleavable) (N); purchased Reaction Biology Corporation (RBC); host or cells: E. coli
Assay: KRAS G12C/SOS1 Nucleotide Exchange Assay (SOS1-mediated Bodipy-GDP to GTP exchange)
Type: biochemical
Conditions: for IC50: substrate Bodipy-GDP/Kras G12C, 30 min pre-incubation at RT
Protocol: Reaction Buffer: 40 mM HEPES 7.4, 10 mM MgCl2, 1 mM DTT 0.002% Triton X100, 0.1% DMSO (final).
In addition, the final assay volume was 15 μL.
Reaction Procedure: • 1. Deliver 10 uL of 1.5× KRAS solution in freshly prepared reaction buffer to reaction wells. • 2. Deliver compounds in 100% DMSO into buffer using acoustic technology (Echo550; nanoliter range). • 3. Incubate compounds with Kras for 30 minutes at room temperature. • 4. Prepare 3× (SOS1+GTP) solution in reaction buffer. • 5. Deliver 5 μL of SOS1+GTP solution into reactions wells (deliver GTP only to column 1 for no SOS1 control). • 6.
Data Analysis: The fluorescence data was normalized using the equation below and fitted to “one phase exponential decay” equation using GraphPad prism software. The plateau was fixed to zero (use for non-covalent inhibitors) and rate ×1000 was used to calculate the IC50 values. Alternatively, the plateau was unconstrained (for covalent inhibitors) and the span value was used to calculate the IC50 values.
where Yraw is defined as fluorescence at time t, Ao is the average initial fluorescence with no SOS1, and M is the minimum fluorescence at the end of the reaction at the maximum SOS1.
The background subtracted signals (no SOS1 protein wells were used as background) were converted to % activity relative to DMSO controls. Data was analyzed using GraphPad Prism 4 with “sigmoidal dose-response (variable slope)”; 4 parameters with Hill Slope. The constraints were bottom (constant equal to 0) and top (must be less than 1).

[1] = plateau fixed to zero, rate x1000 used, read-out: IC50, Analysis Method: Rate Constant, KRAS G12C

T1 sequence (P01116 2-169 G12C): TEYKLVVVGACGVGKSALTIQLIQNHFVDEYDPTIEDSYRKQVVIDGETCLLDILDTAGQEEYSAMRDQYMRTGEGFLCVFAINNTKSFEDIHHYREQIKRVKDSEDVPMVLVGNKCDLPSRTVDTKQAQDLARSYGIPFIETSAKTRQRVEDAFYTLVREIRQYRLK

SMILES	inhibition at 10 µM (span analysis, no curve fit, highest concentration tested 10 μM, read-out: inhibition, printed in place of an IC50, Analysis Method: Span, KRAS G12C) [%]	IC50 [1] [nM]	IC50 (plateau unconstrained, span value used (for covalent inhibitors), read-out: IC50, Analysis Method: Span, KRAS G12C) [nM]
C=CC(=O)N1CCN(c2nc(OCC3CCCN3C)nc3nc(-c4cccc5cccc(Cl)c45)ccc23)C[C@H]1C (stereo partly drawn) [Example 1, 1-[(2R)-4-[7-(8-Chloronaphthalen-1-yl)-2-[(1-methylpyrrolidin-2-yl)methoxy]pyrido[2,3-d]pyrimidin-4-yl]-2-methylpiperazin-1-yl]prop-2-en-1-one]	< 65	58	
C=CC(=O)N1CCN(c2nc(OC[C@@H]3CCCN3C)nc3nc(-c4cccc5cccc(Cl)c45)ccc23)C[C@@H]1CC#N [Example 2, 2-((S)-1-Acryloyl-4-(7-(8-chloronaphthalen-1-yl)-2-(((S)-1-methylpyrrolidin-2-yl)methoxy)pyrido[2,3-d]pyrimidin-4-yl)piperazin-2-yl)acetonitrile trifluoroacetate (1:1)]		8	25
